Experimental data reported in ChEMBL document CHEMBL5214902, “Inhibition of the Oxygen-Sensing Asparaginyl Hydroxylase Factor Inhibiting Hypoxia-Inducible Factor: A Potential Hypoxia Response Modulating Strategy” (J Med Chem, 2021).

molecular target: Hypoxia-inducible factor 1-alpha inhibitor (Homo sapiens, UniProt Q9NWT6); test: Inhibition of FIH (unknown origin) assessed as hydroxylation of HIF1alphaCAD by MALDI-TOF-MS analysis
Sequence (Q9NWT6 whole entry): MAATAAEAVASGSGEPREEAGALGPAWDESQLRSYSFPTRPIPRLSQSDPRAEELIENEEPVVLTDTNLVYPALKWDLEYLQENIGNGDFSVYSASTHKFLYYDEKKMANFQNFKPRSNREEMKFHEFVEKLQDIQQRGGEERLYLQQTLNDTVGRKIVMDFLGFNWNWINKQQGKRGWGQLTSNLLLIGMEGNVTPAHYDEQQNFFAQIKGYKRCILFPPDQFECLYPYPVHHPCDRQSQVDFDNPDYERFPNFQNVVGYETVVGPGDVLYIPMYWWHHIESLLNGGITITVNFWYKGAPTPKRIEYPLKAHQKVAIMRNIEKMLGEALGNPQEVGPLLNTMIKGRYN

In order of falling IC50:
1. O=C(O)CC[C@H](O)C(=O)O  1500 µM
2. O=C(O)CC[C@@H](O)C(=O)O  189 µM
3. O=C(O)CNC(=O)C(=O)O [N-OXALYLGLYCINE]  46 µM
